In patent publication US12059464B2, “Combination therapy involving antibodies against Claudin 18.2 for treatment of cancer” (Astellas Pharma Inc., priority 2012, dated 2024):

How the values were obtained:
KatoIII cells [1] = assay: Cell cycle analysis and CLDN18.2 surface expression of KatoIII cells cultivated with cytostatic compounds; conditions: for cell cycle arrest (phase of the cell cycle): KatoIII cells cultivated with cytostatic compound, DNA content by flow cytometry; for CLDN18.2 expression: KatoIII cells, cultivation for 96 hours
Experimental: Epirubicin (Pfizer) was tested at a concentration of 10 or 100 ng/ml, 5-FU (Neofluor from NeoCorp AG) was tested at a concentration of 10 or 100 ng/ml, and oxaliplatin (Hospira) was tested at a concentration of 50 or 500 ng/ml.
As secondary reagent goat-anti-huIgG-APC from Dianova was used.
Cell cycle stages were determined based on measurement of cellular DNA content. […] Cell cycle analysis was done using the CycleTEST PLUS DNA Reagent Kit from BD Biosciences following the manufacturer's protocol. Flow cytometry acquisition and analysis were performed by using BD FACS CantoII (BD Biosciences) and FlowJo (Tree Star) software.

KatoIII cells [2] = assay: IMAB362-induced ADCC (luciferase) on KatoIII cells pretreated with Irinotecan, Docetaxel or Cisplatin; type: cell-based, human; conditions: KatoIII pretreated for 3 days; for level of viable cells compared to medium cultivated target cells: Irinotecan 1000 ng/ml, Docetaxel 5 ng/ml, Cisplatin 2000 ng/ml; for effect of pretreatment on potency of IMAB362 to induce ADCC: human PBMC effectors
Experimental: Peripheral blood mononuclear cells (PBMCs) including NK cells, monocytes, mononuclear cells or other effector cells from healthy human donors were purified by Ficoll Hypaque density centrifugation. Washed effector cells were seeded in X-Vivo medium. KatoIII cells which express CLDN18.2 endogenously and are of gastric origin were used as target cells in this setting. Target cells stably expressed luciferase, lucifer yellow, which is oxidized by viable cells only.

KatoIII cells [3] = assay: KatoIII cells pretreated with Irinotecan or Docetaxel: cell growth and cell cycle arrest; type: cell-based, human; conditions: KatoIII cells pretreated for 4 days
Experimental: Cell cycle stages were determined based on measurement of cellular DNA content. This allows one to discriminate between cells in the G1-, S- or G2-phase of the cell cycle. In the S-phase DNA duplication occurs whereas in the G2-phase cells grow and prepare for mitosis. Cell cycle analysis was done using the CycleTEST PLUS DNA Reagent Kit from BD Biosciences following the manufacturer's protocol. Flow cytometry acquisition and analysis were performed by using BD FACS CantoII (BD Biosciences) and FlowJo (Tree Star) software.
KatoIII cells were pretreated for 4 days with Irinotecan or Docetaxel and analysed for CLDN18.2 expression and cell cycle arrest.

CLS103 cells = test system: CLS103 cells
Experimental: (§1) Furthermore, human stomach cancer cells (NUGC-4-luciferase) and murine stomach cancer cells (CLS103-calcein stained) were pretreated with or w/o 5 μM ZA for 2 days. Human Vγ9Vδ2 T cells were MACS purified (day 14) and co-cultured with the cancer cells for 24 h. Cytotoxicity of Vγ9Vδ2 T cells towards non-treated and ZA-treated target cells was determined by measuring remaining luciferase activity or calcein fluorescence; cf. FIG. 11b. Target cells (NUGC-4 and CLS103) were pretreated with or w/o 5 μM ZA for 2 days and subsequently incubated for 4 h with mitomycin c ([…]) to stop proliferation. MACS purified human 14d old resting Vγ9Vδ2 T cells and ^3H-thymidine were added to the target cells and co-cultures were incubated for 48 h at 37° C. Proliferation was determined by measuring ^3H thymidine incorporation in the DNA using a MicroBeta scintillation counter. Proliferation of target cells not treated with ZA and w/o Vγ9Vδ2 T cells was set to 100%; cf. FIG. 11c.

PBMCs = assay: Expansion of PBMC cultures with ZA/IL-2; type: cell-based, human; conditions: 14 days, 300 U/ml IL-2
Experimental: PBMCs were harvested from healthy human donors and cultures were treated with a single dose of ZA. […] FIG. 8a. […] FIG. 8b. Increase in cell numbers was determined by counting living cells on day 6, 8, 11 and 14.

NUGC-4 cells = type: cell-based, human
Experimental: as §1

Vγ9Vδ2 T cells = assay: Enrichment of Vγ9Vδ2 T cells in co-culture with monocytes ± ZA; type: cell-based, human; conditions: co-cultures 14 days, ±1 μM ZA
Experimental: The enrichment of Vγ9Vδ2 T cells in the co-cultures after 14 days was determined by multicolor FACS, whereas the expansion of the culture was considered in the calculation. The enrichment factor of Vγ9Vδ2 T cells cultured with monocytes in a 1:4 ratio was set to 100% for each experiment. […] This effect was clearly ZA-dependent; cf. FIG. 11a.

[4] = test system: HEK293~CLDN18.2 transfectants; assay: Early treatment of HEK293~CLDN18.2 tumor xenografts; type: in vivo, nude mice; conditions: isotype control, 200 μg twice per week for 6 weeks
Text: Moreover, advanced tumor treatment experiments were initiated up to 9 days after tumor cell inoculation when tumors had reached volumes of about 60-120 mm^3.
Nude mice were subcutaneously inoculated with 1×10^7 HEK293˜CLDN18.2 transfectants. Treatment of 10 mice per group started 3 days after tumor inoculation. […] Not only time to death was prolonged, but 4 of 10 mice survived the entire observation period of 210 days.

NUGC-4 xenografts = assay: In vivo tumor targeting of Dyelight 680-labeled antibodies (fluorescence imaging); design: species or system nude mice; conditions: time not stated

Compound	cell cycle arrest (phase of the cell cycle) (KatoIII cells [1])	claudin18.2 expression compared to medium cultivated cells (KatoIII cells [2])	level of viable cells compared to medium cultivated target cells (KatoIII cells [2])	effect of pretreatment on potency of IMAB362 to induce ADCC (KatoIII cells [2])	also measured
O=c1[nH]cc(F)c(=O)[nH]1 [5-FU, 5-fluoro-1H-pyrimidine-2,4-dione]	blocked predominantly in the S-phase				CLDN18.2 expression (KatoIII cells [1]): stabilize CLDN18.2-expression
N.N.[Cl][Pt][Cl] [Cisplatin, cis-diamminedichloroplatinum(II)]		increased	lower level of viable cells	augmented the potency of IMAB362 to induce ADCC	
CC(=O)O[C@@]12CO[C@@H]1C[C@H](O)[C@@]1(C)C(=O)[C@H](O)C3=C(C)[C@@H](OC(=O)[C@H](O)[C@@H](NC(=O)OC(C)(C)C)c4ccccc4)C[C@@](O)([C@@H](OC(=O)c4ccccc4)[C@H]21)C3(C)C [Docetaxel, docetaxel]		increased	lower level of viable cells	augmented the potency of IMAB362 to induce ADCC	cell cycle arrest (phase) (KatoIII cells [3]): cell cycle arrest in the G2-phase; inhibition of cell growth (KatoIII cells [3]): dose dependent inhibition of cell growth
COc1cccc2c1C(=O)c1c(O)c3c(c(O)c1C2=O)C[C@@](O)(C(=O)CO)C[C@@H]3O[C@H]1C[C@H](N)[C@@H](O)[C@H](C)O1 [Epirubicin]	cell cycle arrest predominantly in the G2-phase				CLDN18.2 expression (KatoIII cells [1]): stabilize CLDN18.2-expression
CCc1c2c(nc3ccc(OC(=O)N4CCC(N5CCCCC5)CC4)cc13)-c1cc3c(c(=O)n1C2)COC(=O)[C@]3(O)CC [Irinotecan, (S)-4,11-diethyl-3,4,12,14-tetrahydro-4-hydroxy-3,14-dioxo1H-pyrano[3′,4′:6,7]-indolizino[1,2-b]quinolin-9-yl-[1,4′bipiperidine]-1′-carboxylate]		increased	lower level of viable cells	augmented the potency of IMAB362 to induce ADCC	cell cycle arrest (phase) (KatoIII cells [3]): cell cycle arrest in the S/G2-phase; inhibition of cell growth (KatoIII cells [3]): dose dependent inhibition of cell growth
O=C1[O][Pt]2([NH][C@@H]3CCCC[C@H]3[NH]2)[O]C1=O [Oxaliplatin, [(1R,2R)-cyclohexane-1,2-diamine](ethanedioato-O,O′)platinum(II)]	enrichment of cells predominantly in the G1- and G2-phases				
O=P(O)(O)C(O)(Cn1ccnc1)P(=O)(O)O [ZA, [1-hydroxy-2-(1H-imidazol-1-yl)ethane-1,1-diyl]bis(phosphonic acid)]					activation of Vγ9Vδ2 T cells (cytotoxicity and proliferation) by ZA-pulsed cancer cells (CLS103 cells): failed to elicit these effects; lower expansion of cells in medium without ZA versus with ZA (PBMCs): about 2 fold; activation of Vγ9Vδ2 T cell cytotoxicity by ZA-pulsed cancer cells (NUGC-4 cells): 5-10 fold; enrichment of Vγ9Vδ2 T cells with increase of monocytes in the culture (ZA-dependent) (Vγ9Vδ2 T cells): more than 10 fold
infliximab: isotype control antibody [reference compound]					time within which all mice died [4]: 70 to 80 days
rituximab: Dyelight 680-labeled negative control antibody (NUGC-4 negative for CD20) [reference compound]					signal of labeled antibody (negative control, NUGC-4 negative for CD20) (NUGC-4 xenografts): No signal is detected
